Values quoted from earlier work in patent US20100322880A1, “UVA FILTERS BASED ON ASCORBIC ACID DERIVATIVES” (Merck Patent GmbH, priority 2008, published 2010).

Test system: prolyl-4-hydroxylase
Details: for supporting the activity of the enzyme prolyl-4-hydroxylase: literature statement, no figures

Compound | affinity to the enzyme (disubstituted compared with the monosubstituted compound) | supporting the activity of the enzyme prolyl-4-hydroxylase
CC(=O)Oc1ccccc1C(=O)OC[C@H](OC(=O)c1ccccc1OC(C)=O)[C@H]1OC(=O)C(O)=C1O [O^5O^6-bis(2-acetoxybenzoyl) L-ascorbate] | lower affinity | capable of supporting the activity
CC(=O)Oc1ccccc1C(=O)OC[C@H](O)[C@H]1OC(=O)C(O)=C1O [O^6-(2-acetoxybenzoyl) L-ascorbate] |  | capable of supporting the activity
